Here are results for 2 compounds from ChEMBL document CHEMBL1143125, “DNA cleavage by novel copper (II) complex and the role of beta-cyclodextrin in promoting cleavage” (Bioorg Med Chem, 2008).

SMILES strings stand for the structures.

One assay deals with DNA. As to the kind of experiment: Binding affinity to calf thymus DNA assessed by fluorescence quenching assay. Format: nucleic-acid assay. The following applies: Bos taurus.
Another assay has as its system Escherichia coli. Put plainly: Induction of Escherichia coli pUC19 DNA cleavage assessed as non-cleaved DNA level at 0.714 mM after 12 hrs.

For the compound `NC(CCC(=O)Nc1cccc2ccccc12)C(=O)N1CCNCCNCCNCC1` (stereo not drawn), the K with DNA was found to be 30000 L/mol. In addition, the Activity in the assay with Escherichia coli worked out at 7.4%.

As for `OC[C@H]1O[C@@H]2O[C@H]3[C@H](O)[C@@H](O)[C@@H](O[C@H]4[C@H](O)[C@@H](O)[C@@H](O[C@H]5[C@H](O)[C@@H](O)[C@@H](O[C@H]6[C@H](O)[C@@H](O)[C@@H](O[C@H]7[C@H](O)[C@@H](O)[C@@H](O[C@H]8[C@H](O)[C@@H](O)[C@@H](O[C@H]1[C@H](O)[C@H]2O)O[C@@H]8CO)O[C@@H]7CO)O[C@@H]6CO)O[C@@H]5CO)O[C@@H]4CO)O[C@@H]3CO`, in the assay on Escherichia coli, the Activity worked out at 6.3%.
